Tests used:
Assay type in all cases: in vivo
Alopecurus myosuroides [1] = test: Pre-emergence herbicidal effect against ALOMY; settings: 1280 g/ha, visual score after 3 weeks, 100% = plants have died, 0% = like control plants
Source text: (§1) 1. Pre-emergence herbicidal effect and crop plant compatibility Seeds of monocotyledonous and dicotyledonous weed plants and crop plants are laid out in sandy loam soil in wood-fibre pots and covered with soil. The compounds of the invention, formulated in the form of wettable powders (WP) or as emulsion concentrates (EC), are then applied to the surface of the covering soil as aqueous suspension or emulsion at a water application rate equating to 600 to 800 L/ha with addition of 0.2% wetting agent. After the treatment, the pots are placed in a greenhouse and kept under good growth conditions for the trial plants. The damage to the test plants is scored visually after a test period of 3 weeks by comparison with untreated controls (herbicidal activity in percent (%): 100% activity=the plants have died, 0% activity=like control plants). [table]

Digitaria sanguinalis [2] = test: Pre-emergence herbicidal effect against DIGSA; settings: 1280 g/ha, visual score after 3 weeks, 100% = plants have died, 0% = like control plants
Source text: as §1

Poa annua [3] = test: Pre-emergence herbicidal effect against POAAN; settings: 1280 g/ha, visual score after 3 weeks, 100% = plants have died, 0% = like control plants
Source text: as §1

Setaria viridis [4] = test: Pre-emergence herbicidal effect against SETVI; settings: 1280 g/ha, visual score after 3 weeks, 100% = plants have died, 0% = like control plants
Source text: as §1

[5] = test system: Tripleurospermum inodorum; test: Pre-emergence herbicidal effect against MATIN; settings: 1280 g/ha, visual score after 3 weeks, 100% = plants have died, 0% = like control plants
Source text: as §1

Stellaria media [6] = test: Pre-emergence herbicidal effect against STEME; settings: 1280 g/ha, visual score after 3 weeks, 100% = plants have died, 0% = like control plants
Source text: as §1

Veronica persica [7] = test: Pre-emergence herbicidal effect against VERPE; settings: 1280 g/ha, visual score after 3 weeks, 100% = plants have died, 0% = like control plants
Source text: as §1

Veronica persica [8] = test: Post-emergence herbicidal effect against VERPE; settings: 1280 g/ha, visual assessment about 3 weeks after treatment, 100% = plants have died, 0% = like control plants
Protocol: (§2) [table] 2. Post-emergence herbicidal effect and crop plant compatibility Seeds of monocotyledonous and dicotyledonous weed and crop plants are laid out in sandy loam soil in wood-fibre pots, covered with soil and cultivated in a greenhouse under good growth conditions. 2 to 3 weeks after sowing, the test plants are treated at the one-leaf stage. The compounds of the invention, formulated in the form of wettable powders (WP) or as emulsion concentrates (EC), are then sprayed onto the green parts of the plants as aqueous suspension or emulsion at a water application rate equating to 600 to 800 l/ha with addition of 0.2% wetting agent. After the test plants have been left to stand in the greenhouse under optimal growth conditions for about 3 weeks, the action of the preparations is assessed visually in comparison to untreated controls (herbicidal action in percent (%): 100% activity=the plants have died, 0% activity=like control plants).

Lolium rigidum = test: Pre-emergence herbicidal effect against LOLRI; settings: 1280 g/ha, visual score after 3 weeks, 100% = plants have died, 0% = like control plants
Source text: as §1

Alopecurus myosuroides [9] = test: Post-emergence herbicidal effect against ALOMY; settings: 1280 g/ha, visual score after about 3 weeks, 100% = plants have died, 0% = like control plants
Protocol: as §2

Digitaria sanguinalis [10] = test: Post-emergence herbicidal effect against DIGSA; settings: 1280 g/ha, visual score after about 3 weeks, 100% = plants have died, 0% = like control plants
Protocol: as §2

Poa annua [11] = test: Post-emergence herbicidal effect against POAAN; settings: 1280 g/ha, visual assessment about 3 weeks after treatment, 100% = plants have died, 0% = like control plants
Protocol: as §2

Bassia scoparia = test: Post-emergence herbicidal effect against KCHSC; settings: 1280 g/ha, visual assessment about 3 weeks after treatment, 100% = plants have died, 0% = like control plants
Protocol: as §2

Stellaria media [12] = test: Post-emergence herbicidal effect against STEME; settings: 1280 g/ha, visual assessment about 3 weeks after treatment, 100% = plants have died, 0% = like control plants
Protocol: as §2

Echinochloa crus-galli [13] = test: Pre-emergence herbicidal effect against ECHCG; settings: 1280 g/ha, visual score after 3 weeks, 100% = plants have died, 0% = like control plants
Source text: as §1

Echinochloa crus-galli [14] = test: Post-emergence herbicidal effect against ECHCG; settings: 1280 g/ha, visual score after about 3 weeks, 100% = plants have died, 0% = like control plants
Protocol: as §2

Setaria viridis [15] = test: Post-emergence herbicidal effect against SETVI; settings: 1280 g/ha, visual assessment about 3 weeks after treatment, 100% = plants have died, 0% = like control plants
Protocol: as §2

[16] = test system: Tripleurospermum inodorum; test: Post-emergence herbicidal effect against MATIN; settings: 1280 g/ha, visual assessment about 3 weeks after treatment, 100% = plants have died, 0% = like control plants
Protocol: as §2

Abutylon threophrasti = test: Post-emergence herbicidal effect against ABUTH; settings: 1280 g/ha, visual assessment about 3 weeks after treatment, 100% = plants have died, 0% = like control plants
Protocol: as §2

| Compound | Pre-emergence action against ALOMY (Alopecurus myosuroides [1]) [%] | Pre-emergence action against DIGSA (Digitaria sanguinalis [2]) [%] | Pre-emergence action against POAAN (Poa annua [3]) [%] | Pre-emergence action against SETVI (Setaria viridis [4]) [%] | Pre-emergence action against MATIN [5] [%] | Pre-emergence action against STEME (Stellaria media [6]) [%] | Pre-emergence action against VERPE (Veronica persica [7]) [%] | Post-emergence action against VERPE (Veronica persica [8]) [%] | Pre-emergence action against LOLRI (Lolium rigidum) [%] | Post-emergence action against ALOMY (Alopecurus myosuroides [9]) [%] | Post-emergence action against DIGSA (Digitaria sanguinalis [10]) [%] | Post-emergence action against POAAN (Poa annua [11]) [%] | Post-emergence action against KCHSC (Bassia scoparia) [%] | Post-emergence action against STEME (Stellaria media [12]) [%] | Pre-emergence action against ECHCG (Echinochloa crus-galli [13]) [%] | Post-emergence action against ECHCG (Echinochloa crus-galli [14]) [%] | Post-emergence action against SETVI (Setaria viridis [15]) [%] | Post-emergence action against MATIN [16] [%] | Post-emergence action against ABUTH (Abutylon threophrasti) [%] |
| --- | --- | --- | --- | --- | --- | --- | --- | --- | --- | --- | --- | --- | --- | --- | --- | --- | --- | --- | --- |
| CCOC(=O)CSc1nn(-c2ccccc2OC)c(-c2ccc(F)cc2)c1Br [Example I-023] | 90 | 100 | 100 | 90 | 100 | 100 | 100 | 90 | – | – | – | – | – | – | – | – | – | – | – |
| CCOC(=O)CSc1nn(-c2ccc(Cl)cc2Cl)c(-c2ccc(F)c(F)c2)c1Br [Example I-026] | – | – | – | – | 100 | – | – | 90 | – | – | – | – | – | – | – | – | – | – | – |
| CCOC(=O)CSc1nn(-c2ccc(F)cc2F)c(-c2ccc(F)c(F)c2)c1Br [Example I-027] | – | 100 | 100 | 100 | 100 | 100 | 90 | 100 | 90 | 100 | 100 | 90 | 90 | 90 | – | – | – | – | – |
| CCOC(=O)CSc1nn(-c2ccccc2F)c(-c2ccc(Cl)nc2)c1Br [II-012] | 90 | – | 100 | 90 | 100 | 100 | 100 | 90 | 100 | 90 | – | 100 | – | – | 90 | 90 | 90 | 90 | – |
| CCOC(=O)CSc1nn(-c2ccccc2F)c(-c2ccc(Br)nc2)c1Br [II-015] | – | – | 90 | – | 100 | 100 | – | 90 | – | – | – | 90 | – | – | – | – | – | 90 | 90 |
| O=C(O)CSc1nn(-c2ccccc2F)c(-c2ccc(Cl)nc2)c1Br [II-016] | 90 | 100 | 100 | 100 | 100 | 100 | 90 | 100 | 100 | 100 | 100 | 100 | – | 100 | 100 | 100 | – | 100 | – |
| O=C(O)CSc1nn(-c2ccccc2F)c(-c2cccnc2)c1Br [II-017] | 90 | – | 100 | 90 | 90 | 90 | 100 | 90 | – | 90 | – | 100 | – | – | 90 | 90 | 90 | 90 | – |

Reference: patent US20230126893A1, “[(1,4,5-TRISUBSTITUTED-1H-PYRAZOL-3-YL)SULFANYL]ACETIC ACID DERIVATIVES, SALTS THEREOF, AND USE THEREOF AS ACTIVE HERBICIDAL INGREDIENTS” (BAYER AKTIENGESELLSCHAFT, priority 2020, published 2023)
